Results: PMC8151276, “An Integrated Approach toward NanoBRET Tracers for Analysis of GPCR Ligand Engagement” (Molecules, 2021)

How the values were obtained:
[1] = biological target: T1, HTR1A (Homo sapiens, UniProt P08908); assay: NanoBRET screen HiBiT-HTR1A in HEK293; format: binding
T1 construct: purchased Promega (in-house HiBiT-GPCR construct library, NanoBRET)
T1 sequence (P08908 1-422): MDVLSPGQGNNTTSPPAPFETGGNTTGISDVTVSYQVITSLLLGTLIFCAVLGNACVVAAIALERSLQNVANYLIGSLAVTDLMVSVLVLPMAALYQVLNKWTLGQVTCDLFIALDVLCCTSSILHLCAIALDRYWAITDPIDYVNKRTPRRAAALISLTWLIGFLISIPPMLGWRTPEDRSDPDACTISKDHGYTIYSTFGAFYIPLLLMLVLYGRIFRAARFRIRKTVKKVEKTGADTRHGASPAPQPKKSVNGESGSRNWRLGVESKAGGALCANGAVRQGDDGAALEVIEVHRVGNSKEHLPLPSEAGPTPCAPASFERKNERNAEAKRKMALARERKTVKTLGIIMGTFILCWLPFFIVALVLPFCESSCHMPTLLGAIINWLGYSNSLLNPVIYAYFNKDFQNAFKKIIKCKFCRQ
Method: (§1) Each tracer candidate was screened across the entire library of HiBiT-GPCR constructs using NanoBRET as the detection modality. As depicted in Figure 4A, the specificity of interactions was evaluated through decrease in BRET due to competitive displacement of a bound tracer by excess parental compound. Each tracer was analyzed for binding to each HiBiT-GPCR fusion in the absence and in the presence of competing parental compound. Briefly, HEK293 cells were transfected with HiBiT-GPCR constructs diluted into promoterless DNA to reduce expression and maximize translocation to the cell surface. Each tracer candidate was then screened at concentrations of 1 μM and 0.1 μM across cells expressing these fusions. Cells were treated for 1.5 h with tracer either alone or in the presence of 20 μM competing parental compound (i.e., control). BRET was measured upon addition of purified LgBiT and subsequent complementation with HiBiT genetically fused to a GPCR. The specificity of interactions was assessed through a decrease in BRET signal due to competitive displacement of the bound tracer. To further gauge the robustness of these interactions, the fold response over the control (i.e., BRETtracer/BRETcontrol) was calculated. We chose a 1.5-fold response, which translates to ≥7-fold signal over noise as the minimal threshold required to score an interaction as positive.
(§2) HiBiT-GPCR DNA constructs were diluted in 10 mM Tris pH 8 to a final concentration of 0.01 μg/μL, arrayed in 96-well plates and stored at −20 °C. For transfection, HEK293 cells were suspended in Opti-MEM (without phenol red) supplemented with 2% fetal bovine serum (Seradigm) and 100 units/mL penicillin–streptomycin (Gibco) at a final concentration of 220,000 cells/mL and dispensed into white 96-well plates at 90 μL/well. Subsequent transfections and screens were carried using an Agilent Bravo Automated Liquid Handling Platform. First, the 96-well HiBiT DNA arrays were diluted 25-fold in Opti-MEM (without serum or phenol red) to a final concentration of 0.0004 μg/μL and 20 μL of the diluted DNAs were transferred into new 96-well plates. Next, promoterless carrier DNA (1 μg/μL) was diluted 25-fold (0.04 μg/μL) and then dispensed into the diluted arrays at 20 μL/well. Following brief mixing, Viafect transfection reagent (Promega) diluted 16-fold into Opti-MEM was dispensed into the plates at 40 μL/well. After mixing by pipetting, plates were incubated for 10 min on the pipetting station deck. The DNA-transfection reagent complexes were then added to plates containing cells. To facilitate the screen, 10 μL of DNA-transfection reagent complexes were added in duplicates to the top 4 and bottom 4 rows, resulting in two identical 48-well arrays per plate. Plates with transfected cells were incubated for 18–20 h at 37 °C/5% CO2. A screen of each tracer across the entire library using two different concentrations requires duplicate plates of transfected cells. Depending on the number of tracers being screened, transfections can be scaled up using the same ratios. The next day, for each tracer, four 20× screening solutions in tracer dilution buffer (Promega) were prepared: two duplicates at final concentration of 20 μM and two duplicates at a final concentration of 2 μM. […] The four resulting solutions were diluted 4-fold in Opti-MEM without serum or phenol red to generate 5× solutions (5 µM and 0.5 µM tracer +/− 100 μM competing compound). To screen the library, a BioTek MultiFlo FX liquid dispenser was used to dispense 22.5 µL of tracer solution to the top 4 rows and 22.5 µL tracer + competing compound solution to the 4 bottom rows. Plates were briefly mixed on an orbital shaker and incubated for 1.5 h at room temperature. […] Plates were briefly mixed on an orbital shaker and incubated for 15 min to allow complementation.

[2] = biological target: T2, EDNRB (Homo sapiens, UniProt P24530); assay: NanoBRET screen HiBiT-EDNRB in HEK293; format: binding
T2 construct: purchased Promega (in-house HiBiT-GPCR construct library, NanoBRET)
T2 sequence (P24530 27-442): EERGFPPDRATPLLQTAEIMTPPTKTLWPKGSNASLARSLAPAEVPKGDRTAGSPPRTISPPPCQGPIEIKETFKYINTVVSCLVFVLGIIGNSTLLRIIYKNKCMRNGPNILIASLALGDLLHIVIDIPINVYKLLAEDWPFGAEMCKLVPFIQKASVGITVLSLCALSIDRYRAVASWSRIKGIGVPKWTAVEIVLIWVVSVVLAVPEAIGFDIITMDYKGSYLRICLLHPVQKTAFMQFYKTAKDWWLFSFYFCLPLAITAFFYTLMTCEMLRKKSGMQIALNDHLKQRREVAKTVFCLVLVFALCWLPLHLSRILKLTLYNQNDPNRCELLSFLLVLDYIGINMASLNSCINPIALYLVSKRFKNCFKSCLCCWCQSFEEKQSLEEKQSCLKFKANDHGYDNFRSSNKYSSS
Method: as §1, §2

[3] = tracer at 1μM, listed as amitriptyline-b-2-NB590

CCOC(=O)c1cc(C#N)c(N2CCC(C(=O)NS(=O)(=O)Cc3ccccc3/C=C/C(=O)NCCNC(=O)CCc3ccc4n3[B-](F)(F)[N+]3=C(c5ccc[nH]5)C=CC3=C4)CC2)nc1C [AZD1283-1-NB590]
NanoBRET Fold Response ([1]; HTR1A, 0.1μM): 0.97
NanoBRET Fold Response ([1]; HTR1A, 1μM): 1.04
NanoBRET Fold Response ([2]; EDNRB, 0.1μM): 1.03
NanoBRET Fold Response ([2]; EDNRB, 1μM): 0.98

N#CN/C(=N\CCNC(=O)c1ccc(N)cc1)NCCCOc1cccc(CN2CCCCC2)c1 [Aminopotentidine (unmodified)]
NanoBRET Fold Response ([1]; HTR1A, other tracers/Aminopotentidine (unmodified), 0.1μM): 1.28
NanoBRET Fold Response ([1]; HTR1A, other tracers/Aminopotentidine (unmodified), 1μM): 1.69

N#CN=C(NCCCOc1cccc(CN2CCCCC2)c1)NCCNC(=O)CCOCCOCCOCCOCCNC(=O)CCc1ccc2n1[B-](F)(F)[N+]1=C(c3ccc[nH]3)C=CC1=C2 [Aminopotentidine-2-NB590]
NanoBRET Fold Response ([1]; HTR1A, tracer 0.1μM): 1.04
NanoBRET Fold Response ([1]; HTR1A, tracer 1μM): 0.98
NanoBRET Fold Response ([2]; EDNRB, tracer 0.1μM): 1.03
NanoBRET Fold Response ([2]; EDNRB, tracer 1μM): 1.02

CN(C)CCC=C1c2ccccc2CCc2ccc(C(=O)NCCNC(=O)CCOCCOCCOCCOCCNC(=O)CCc3ccc4n3[B-](F)(F)[N+]3=C(c5ccc[nH]5)C=CC3=C4)cc21 [Amitriptyline-a-2-NB590]
NanoBRET Fold Response ([1]; tracer at 0.1μM): 1.33
NanoBRET Fold Response ([1]; tracer at 1μM): 1.04
NanoBRET Fold Response ([2]; tracer at 0.1μM): 1.04
NanoBRET Fold Response ([2]; tracer at 1μM): 1.05

CN(C)CCC=C1c2ccccc2CCc2ccc(C(=O)NCCNC(=O)CCOCCOCCOCCOCCNC(=O)CCc3ccc4n3[B-](F)(F)[N+]3=C(c5ccc[nH]5)C=CC3=C4)cc21 [Amitriptyline-b-2-NB590]
NanoBRET Fold Response ([1]; tracer at 0.1μM, listed as amitriptyline-b-2-NB590): 1.19
NanoBRET Fold Response [1, 3]: 1.02
NanoBRET Fold Response [2, 3]: 0.83

CN(CCC=C1c2ccccc2CCc2ccccc21)C(=O)CCOCCOCCOCCOCCNC(=O)CCc1ccc2n1[B-](F)(F)[N+]1=C(c3ccc[nH]3)C=CC1=C2 [Amitriptyline-e-2-NB590]
NanoBRET Fold Response ([1]; tracer at 1μM): 0.99
NanoBRET Fold Response ([2]; tracer at 1μM): 1.01

COc1ccc2c(n1)c(CCNC(C)=O)cn2CCNC(=O)CCc1ccc2n1[B-](F)(F)[N+]1=C(c3ccc[nH]3)C=CC1=C2 [Azamelatonin-1-NB590]
NanoBRET Fold Response ([1]; 0.1μM tracer): 1.02
NanoBRET Fold Response ([1]; 1μM tracer): 1.02
NanoBRET Fold Response ([2]; 0.1μM tracer): 0.96
NanoBRET Fold Response ([2]; 1μM tracer): 0.96

COc1ccc2[nH]c(-c3ccc(CNC(=O)CCOCCOCCOCCOCCNC(=O)CCc4ccc5n4[B-](F)(F)[N+]4=C(c6ccc[nH]6)C=CC4=C5)cc3)c(CCNC(C)=O)c2n1 [AzomelatoninICO9-2-NB590]
NanoBRET Fold Response ([1]; 0.1μM tracer): 0.95
NanoBRET Fold Response ([1]; 1μM tracer): 1.15
NanoBRET Fold Response ([2]; 0.1μM tracer): 0.95
NanoBRET Fold Response ([2]; 1μM tracer): 1.11

O=C(CCOCCOCCOCCOCCNC(=O)CCc1ccc2n1[B-](F)(F)[N+]1=C(c3ccc[nH]3)C=CC1=C2)NCCCN1CCN(C2=Nc3cc(Cl)ccc3Nc3ccccc32)CC1 [Clozapine-a-2-NB590]
NanoBRET Fold Response ([1]; HTR1A, 0.1μM tracer): 1.16
NanoBRET Fold Response ([1]; HTR1A, 1μM tracer): 0.98
NanoBRET Fold Response ([2]; EDNRB, 0.1μM tracer): 1.01
NanoBRET Fold Response ([2]; EDNRB, 1μM tracer): 0.93

CN1CCN(C2=Nc3cc(Cl)ccc3Nc3ccc(CNC(=O)CCOCCOCCOCCOCCNC(=O)CCc4ccc5n4[B-](F)(F)[N+]4=C(c6ccc[nH]6)C=CC4=C5)cc32)CC1 [Clozapine-b-2-NB590]
NanoBRET Fold Response ([1]; HTR1A, 0.1μM tracer): 0.98
NanoBRET Fold Response ([1]; HTR1A, 1μM tracer): 1.21
NanoBRET Fold Response ([2]; EDNRB, 0.1μM tracer): 0.96
NanoBRET Fold Response ([2]; EDNRB, 1μM tracer): 0.99

CN1CCN(C2=Nc3cc(Cl)ccc3N(CC(=O)NCCOCCOCCOCCOCCNC(=O)CCc3ccc4n3[B-](F)(F)[N+]3=C(c5ccc[nH]5)C=CC3=C4)c3ccccc32)CC1 [Clozapine-c-2-NB590]
NanoBRET Fold Response ([1]; HTR1A, 1μM tracer): 1.12
NanoBRET Fold Response ([2]; EDNRB, 0.1μM tracer): 1.00
NanoBRET Fold Response ([2]; EDNRB, 1μM tracer): 1.06

O=C(CCOCCOCCOCCOCCNC(=O)CCc1ccc2n1[B-](F)(F)[N+]1=C(c3ccc[nH]3)C=CC1=C2)NCCCN1CCN(C2=Nc3ccccc3Oc3ccc(Cl)cc32)CC1 [Loxapine-a-2-NB590]
NanoBRET Fold Response ([1]; HTR1A, tracer 0.1μM): 1.15
NanoBRET Fold Response ([1]; HTR1A, tracer 1μM): 1.19
NanoBRET Fold Response ([2]; EDNRB, tracer 0.1μM): 1.05
NanoBRET Fold Response ([2]; EDNRB, tracer 1μM): 0.89

COc1ccccc1N1CCN(CCCCN2C(=O)c3ccc(CNC(=O)CCOCCOCCOCCOCCNC(=O)CCc4ccc5n4[B-](F)(F)[N+]4=C(c6ccc[nH]6)C=CC4=C5)cc3C2=O)CC1 [NAN-190-2-NB590]
NanoBRET Fold Response ([1]; HTR1A, tracer 0.1μM): 2.15
NanoBRET Fold Response ([1]; HTR1A, tracer 1μM): 1.76
NanoBRET Fold Response ([2]; EDNRB, tracer 0.1μM): 1.05
NanoBRET Fold Response ([2]; EDNRB, tracer 1μM): 0.99

COc1ccccc1N1CCN(CCCCN2C(=O)c3ccc(CNC(=O)CCOCCNC(=O)c4ccc(CNC(=O)CCc5ccc6n5[B-](F)(F)[N+]5=C(c7ccc[nH]7)C=CC5=C6)cc4)cc3C2=O)CC1 [NAN-190-3-NB590]
NanoBRET Fold Response ([1]; HTR1A, tracer 1μM): 1.70
NanoBRET Fold Response ([2]; EDNRB, tracer 0.1μM): 0.95
NanoBRET Fold Response ([2]; EDNRB, tracer 1μM): 1.00

O=C(CCc1ccc2n1[B-](F)(F)[N+]1=C(c3ccc[nH]3)C=CC1=C2)NCc1ccc(C(=O)NCCOCCC(=O)N[C@@H]2CC[C@@]3(O)[C@H]4Cc5ccc(O)c6c5[C@@]3(CCN4CC3CC3)[C@H]2O6)cc1 [Naltrexone-3-NB590]
NanoBRET Fold Response ([1]; HTR1A, tracer 0.1μM): 0.94
NanoBRET Fold Response ([1]; HTR1A, tracer 1μM): 1.03
NanoBRET Fold Response ([2]; EDNRB, tracer 0.1μM): 0.94
NanoBRET Fold Response ([2]; EDNRB, tracer 1μM): 1.06

Cc1cc2c(s1)Nc1ccccc1N=C2N1CCN(CCCNC(=O)CCOCCOCCOCCOCCNC(=O)CCc2ccc3n2[B-](F)(F)[N+]2=C(c4ccc[nH]4)C=CC2=C3)CC1 [Olanzapine-a-2-NB590]
NanoBRET Fold Response ([1]; HTR1A, tracer 0.1μM): 0.99
NanoBRET Fold Response ([1]; HTR1A, tracer 1μM): 1.06
NanoBRET Fold Response ([2]; EDNRB, tracer 0.1μM): 1.00
NanoBRET Fold Response ([2]; EDNRB, tracer 1μM): 0.89

O=C(CCc1ccc2n1[B-](F)(F)[N+]1=C(c3ccc[nH]3)C=CC1=C2)NCc1ccc(C(=O)NCCOCCOCCNCC(O)COc2cccc3ccccc23)cc1 (centres unmarked) [Propranolol-3-NB590]
NanoBRET Fold Response ([1]; HTR1A, 0.1μM): 1.38
NanoBRET Fold Response ([1]; HTR1A, 1μM): 1.39
NanoBRET Fold Response ([2]; EDNRB, 0.1μM): 1.05
NanoBRET Fold Response ([2]; EDNRB, 1μM): 1.01

O=C(CCc1ccc2n1[B-](F)(F)[N+]1=C(c3ccc[nH]3)C=CC1=C2)NCCOCCOCCNC(=O)OCCOCCN1CCN(C2=Nc3ccccc3Sc3ccccc32)CC1 [Quetiapine-a-2-NB590]
NanoBRET Fold Response ([1]; HTR1A, tracer 0.1μM): 1.09
NanoBRET Fold Response ([1]; HTR1A, tracer 1μM): 1.04
NanoBRET Fold Response ([2]; EDNRB, tracer 0.1μM): 0.97
NanoBRET Fold Response ([2]; EDNRB, tracer 1μM): 0.99
